The source of these data is patent US11344542B2, “Treatment of aging-associated disease with modulators of leukotriene A4 hydrolase” (Alkahest, Inc., priority 2018, dated 2022).

Entries after “also recorded” stand apart in the source; their conditions may differ.

For assay [1], the system named is nineteen-month-old wild type (C57BL/6) mice. The assay is described as follows: Y-maze in aged mice treated with inhibitors. Conditions: PO daily for 4 weeks, SC 5 mg/kg, CP 10 mg/kg. The class given is in vivo, mouse. The method, then:
A large Y-maze test assessed short-term memory of the familiarity of a specific context. Mice were brought to the experimental room for at least 30 min of acclimation to the experimental room conditions (dim lighting) prior to testing. For the initial training trial, the mouse was placed at the end of one arm of a large Y-maze designated “start arm” (arm length: 15 inches). The third arm of the maze was blocked off, allowing the mouse to explore two of the three arms freely (“start arm” and “familiar arm”) for 5 min. Each arm contained spatial cues. Three hours later, the mouse was placed back into the maze in the “start arm,” and allowed to explore all three arms with the third arm unblocked (“novel arm”). Movements in and out of each arm were tracked using automated tracking software (CleverSys or San Diego Instruments). Testing was performed under dim lighting, and the apparatus was cleaned with 70% ethanol between trials. The time spent and number of entireties into the “novel arm” and “familiar arm” were analyzed, as well as total distance travelled and velocity as measures of general locomotor activity.
Recombinant human LTA4H (Bio-techne, 4008-SN) was buffer-exchanged into sterile PBS and dosed at 4.6 ug/150 uL by tail vein i.v. injection. SC-57461A (Cayman Chemical, 423169-68) stock solution was prepared at 10 mg/mL in DMSO. […]

Assay [2] has the same test system. The assay is described as follows: Radial arm water maze in aged mice treated with inhibitors. Type of assay: in vivo, mouse. How it is done: The water maze (see, e.g. Alamed J, et al., Two-day radial-arm water maze learning and memory tasks; robust resolution of amyloid-related memory deficits in transgenic mice., Nat. Protoc., 1(4):1671-79 (2006)), was filled with water at least 24 hours prior to the test to equilibrate to 25° C. The water was dyed with white latex paint to make the animals visible for tracking and to allow for the use of a hidden platform. Eight distinct visual cues were placed at the end of each of eight arms of the RAWM inserts. On day 1 animals were subjected to 5 trials each with a visible platform and a 30-minute inter-trial interval. Animals had 60 seconds to reach the platform. […] The goal arm remained constant and a different start arm was randomly assigned for each of the 5 trials so that mouse started in every arm once except for the two arms directly across from the platform. The goal arm was switched after every two mice and balanced between all treatment groups. After each trial the mice were placed in an empty cage with blue pads and allowed to dry off under a heat lamp before being placed back into their home cage. Testing day was 48 hours after training, when animals were subjected to the same test of 5 trials each and a 30-minute inter-trial interval, but with a hidden platform Animals were scored for the number of errors (entry into a non-goal arm) and for latency to reach the platform. All trials were recorded using TopScan software (CleverSys, Inc., Reston, Va.).
Recombinant human LTA4H (Bio-techne, 4008-SN) was buffer-exchanged into sterile PBS and dosed at 4.6 ug/150 uL by tail vein i.v. injection. SC-57461A (Cayman Chemical, 423169-68) stock solution was prepared at 10 mg/mL in DMSO. Stock solution was diluted into sterile PBS immediately prior to p.o. dosing to a final concentration of 10% DMSO and 1 mg/mL SC-57461A. Mice were p.o. dosed at 5 mg/kg. CP-105,696 (Sigma, PZ0363), Pinostilbene hydrate (Sigma, SML0098), and Montelukast (Cayman Chemical, 10008318) stock solutions were prepared at 30 mg/mL in EtOH/Solutol. […]

In the next assay the test system is LTB4. The assay is described as follows: Plasma LTB4 by ELISA in aged mice treated with inhibitors. Type of assay: in vivo, mouse. Conditions: terminal plasma, PO daily for 4 weeks, vs vehicle. The method, then: On the final day of dosing, mice were deeply anesthetized with Avertin (250 mg/kg IP). The mice are subjected to cardiac puncture and blood samples were collected using syringes pre-filled with EDTA or heparin. Blood was either subjected to calcimycin stimulation assay or separated into plasma by centrifugation. Plasma from each mouse was aliquoted and stored at −80° C.
The concentration of mouse LTB4, the product of LTA4H enzyme hydrolysis activity, was measured using commercially-available LTB4 parameter assay kits (R&D Systems and Enzo). Blood samples were collected by cardiac puncture into pre-filled syringes with EDTA and injected into a microcentrifuge tube. The plasma was separated by centrifugation at 1000 g for 15 minutes at 4 C. Alternatively, blood was subjected to a calcimycin stimulation assay to increase the production of LTB4 prior to plasma collection. All plasma was stored at −80 C until measurement of LTB4 levels. LTB4 levels were measured from the plasma from 4-15 individual young (3 month, 3M) or aged (22.5 month, 22.5M) wild-type mice (WT; C57BL/6).
Nineteen-month-old (19 mo) wild type (WT; C57BL/6) mice were homogenized into five (5) groups by body weight, total distance travelled in the open field test, and average velocity in the open field test. […]

The next assay concerns hippocampal mRNA levels. Put plainly: qPCR of hippocampal mRNA levels in aged mice treated with inhibitors. The class given is in vivo, mouse. Conditions: PO daily for 4 weeks, vs vehicle. How it is done: (§1) Brains were collected following saline perfusion and separated by mid-sagittal slice with one-half drop fixed in freshly prepared 4% PFA. PFA was changed to 30% sucrose 24-48 hours later. A second change to 30% sucrose occurred 24 hours later. The second half was dissected into hippocampus and cortex and then snap frozen on dry ice.
(§2) Brain tissue was sectioned or lysed and analyzed for markers of neurogenesis and aging by standard histological and biochemical methods, including qRT-PCR, Western blot, ELISA, and immunohistochemistry.
(§3) Nineteen-month-old (19 mo) wild type (WT; C57BL/6) mice were homogenized into five (5) groups by body weight, total distance travelled in the open field test, and average velocity in the open field test. Group 1 was administered 10% EtOH control PO daily for 4 weeks, Group 2 was administered 5 mg/kg of SC-57461A LTA4H dual inhibitor PO daily for 4 weeks; Group 3 was administered 10 mg/kg of CP-105,696 LTB4 receptor (BLTR) antagonist PO daily for 4 weeks, Group 4 was administered 10 mg/kg of Montelukast cysteinyl receptor (CysLTR) antagonist daily for 4 weeks, and Group 5 was administered 10 mg/kg of pinostilbene hydrate daily for 4 weeks. During Week 4 of treatment all groups were tested using open field, radial arm water maze, and Y-maze. During Week 5 animals were sacrificed, and tissues collected for histological and biochemical analysis.

Assay [3] deals with aquaporin 4 (AQP4) in the hippocampus. Put plainly: Aquaporin 4 (AQP4) immunofluorescence in the hippocampus of aged mice. Type of assay: in vivo, mouse. Conditions: 10 mg/kg PO daily for 4 weeks. The method, then:
as §1, §2, §3

The next assay addresses T1, LTA4H (Homo sapiens, UniProt P09960).
T1 sequence (P09960 1-611): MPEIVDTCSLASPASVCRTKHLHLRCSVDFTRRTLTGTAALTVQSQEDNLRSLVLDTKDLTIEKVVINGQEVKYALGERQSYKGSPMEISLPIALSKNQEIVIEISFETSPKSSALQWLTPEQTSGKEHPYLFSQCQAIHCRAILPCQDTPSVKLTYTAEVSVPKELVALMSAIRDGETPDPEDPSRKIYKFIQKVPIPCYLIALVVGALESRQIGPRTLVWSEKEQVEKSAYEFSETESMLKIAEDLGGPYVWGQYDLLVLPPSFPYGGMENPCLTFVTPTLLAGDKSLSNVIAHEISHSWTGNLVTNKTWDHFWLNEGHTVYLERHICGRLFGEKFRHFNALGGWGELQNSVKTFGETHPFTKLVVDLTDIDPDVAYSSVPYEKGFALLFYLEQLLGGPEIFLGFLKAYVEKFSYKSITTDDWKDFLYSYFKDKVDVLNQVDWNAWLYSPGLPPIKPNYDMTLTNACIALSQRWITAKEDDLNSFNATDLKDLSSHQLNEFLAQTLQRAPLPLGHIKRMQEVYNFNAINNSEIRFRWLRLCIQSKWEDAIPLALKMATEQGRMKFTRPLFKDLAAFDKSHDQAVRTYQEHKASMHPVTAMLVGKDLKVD
Conditions: in vitro; Low et al., Sci Rep 2017; cited from earlier work.

[4] abbreviates: hidden platform testing phase, compared to vehicle mice.

`O=C(O)C1(c2ccc3c(c2)OC[C@H](Cc2ccc(-c4ccccc4)cc2)[C@H]3O)CCCC1` [CP-105,696]: the “preference for the novel versus familiar arm in Y-maze (percentage of entries)” value in assay [1] is on record as “statistically significant preference for the novel arm”.
`CN(CCCOc1ccc(Cc2ccccc2)cc1)CCC(=O)O.Cl` [SC-57461A]: in assay [2] (aged mice, PO daily for 4 weeks, SC 5 mg/kg, Montelukast 10 mg/kg), the “hippocampus-dependent spatial memory in radial arm water maze” value is on record as “improvement”. Also, in assay [2] (setting [4]), the “latency to find the platform in radial arm water maze” value was “significantly shorter latency” and the “number of errors in radial arm water maze” value is “fewer errors”. Moreover, in assay [1], the “preference for the novel versus familiar arm in Y-maze (percentage of entries)” value was “trend towards preference for the novel arm”. Besides, in the assay with LTB4, the “plasma concentration of LTB4 measured by ELISA” value is given as “reduces”. For the same compound, in the assay on hippocampal mRNA levels, the “IL-1β hippocampal mRNA expression (qPCR)” value is “significant decrease”, the “IL-6 hippocampal mRNA expression (qPCR)” value is “significant decrease”, the “TNFα hippocampal mRNA expression (qPCR)” value is reported as “significant decrease” and the “aqp4 hippocampal mRNA expression (qPCR)” value was “significant decrease”. Besides, in the assay on hippocampal mRNA levels, the “h2d1 hippocampal mRNA expression (qPCR)” value is “significant decrease” and the “timp1 hippocampal mRNA expression (qPCR)” value was “trend towards a decrease”.
As to `COc1cc(O)cc(/C=C/c2ccc(O)cc2)c1` [pinostilbene hydrate], in assay [3], the “fluorescence intensity of AQP4 in the hippocampus immediately surrounding blood vessels (vascular)” value is “trend towards a decrease”. In addition, in assay [3] (vs vehicle, hydrate, 10 mg/kg), the “integrated optical density of aquaporin 4 (AQP4) in the hippocampus” value is recorded as “trend towards a decrease; also recorded: significant reduction”. In addition, the “plasma concentration of LTB4 measured by ELISA” value with LTB4 was “did not detect a reduction”. Moreover, the “TNFα hippocampal mRNA expression (qPCR)” value in the assay on hippocampal mRNA levels is reported as “significant decrease”. Besides, at LTA4H, the “inhibition of hydrolase versus peptidase activity of LTA4H” value was “only inhibit the hydrolase activity and not the peptidase activity”.
